Measured values published in US9776962B2, “Aromatic compounds with GPR40 agonistic activity” (TAKEDA PHARMACEUTICAL COMPANY LIMITED, priority 2013, dated 2017).

Each compound was assayed against T1, human GPR40 (Homo sapiens, UniProt O14842) (assay: Evaluation of human GPR40 agonist activity with increase in intracellular Ca2+ concentration as an index (FLIPR)). Settings: test compound 1 μM; CHO(dhfr−) cells stably expressing human GPR40; 100% = 10 μM compound of Example 153, 0% = DMSO.
T1 construct: expressed in transfected cells
Type: cell-based
Procedure, shortened: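 CHO(dhfr−) cells stably expressing full-length human GPR40 were loaded with Ca2+ probe for 1 h at room temperature, then given test compound at 1 μM final. Fluorescence was followed on FLIPR, with activity scaled to a reference agonist at 10 μM (100%) and DMSO (0%).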

T1 sequence (O14842 whole entry): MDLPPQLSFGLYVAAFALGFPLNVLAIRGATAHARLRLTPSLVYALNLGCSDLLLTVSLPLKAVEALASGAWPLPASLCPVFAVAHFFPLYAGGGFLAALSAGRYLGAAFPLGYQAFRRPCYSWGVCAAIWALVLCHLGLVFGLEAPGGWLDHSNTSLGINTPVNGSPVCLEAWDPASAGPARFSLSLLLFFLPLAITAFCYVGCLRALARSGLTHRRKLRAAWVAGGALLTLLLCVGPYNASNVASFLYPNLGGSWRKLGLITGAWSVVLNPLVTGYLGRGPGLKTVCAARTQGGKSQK

Structure (SMILES) | activation at 1 µM [%]
COc1ncc(C(=O)N(CC(C)(C)C)c2cccc(C)n2)c(N2CCC(COc3cc(C(CC(=O)O)C4CC4)ccn3)CC2)n1 (stereo not shown) [Example 287, 3-cyclopropyl-3-(2-((1-(5-((2,2-dimethylpropyl) (6-methylpyridin-2-yl)carbamoyl)-2-methoxypyrimidin-4-yl)piperidin-4-yl)methoxy)pyridin-4-yl)propanoic acid] | 82
CCOC(CC(=O)O)c1cccc(OCC2CCN(c3cc(OC)ccc3C(=O)N(CC(C)(C)C)c3cccc(C)n3)CC2)c1 (stereo not shown) [Example 270, 3-(3-((1-(2-((2,2-dimethylpropyl)(6-methylpyridin-2-yl)carbamoyl)-5-methoxyphenyl)piperidin-4-yl)methoxy)phenyl)-3-ethoxypropanoic acid] | 95
COc1ccc(C(=O)NCC(F)(F)C(F)(F)F)c(N2CCC(COc3cc(C(CC(=O)O)C4CC4)ccn3)CC2)c1 (stereo not shown) [Example 129, 3-cyclopropyl-3-(2-((1-(5-methoxy-2-((2,2,3,3,3-pentafluoropropyl)carbamoyl)phenyl)piperidin-4-yl)methoxy)pyridin-4-yl)propanoic acid] | 81
COc1ccc(C(=O)N(CC2(F)CC2)c2ccccn2)c(N2CCC(COc3cc(C(CC(=O)O)C4CC4)ccn3)CC2)c1 (stereo not shown) [Example 144, 3-cyclopropyl-3-(2-((1-(2-(((1-fluorocyclopropyl)methyl)(pyridin-2-yl)carbamoyl)-5-methoxyphenyl)piperidin-4-yl)methoxy)pyridin-4-yl)propanoic acid] | 79
COc1c(F)cc(C(=O)N(CC(C)(C)C)c2cccc(C)n2)c(N2CCC(COc3cc(C(CC(=O)O)C4CC4)ccn3)CC2)c1F (stereo not shown) [Example 253, 3-cyclopropyl-3-(2-((1-(6-((2,2-dimethylpropyl)(6-methylpyridin-2-yl)carbamoyl)-2,4-difluoro-3-methoxyphenyl)piperidin-4-yl)methoxy)pyridin-4-yl)propanoic acid] | 74
CCC(C)(C)CN(C(=O)c1ccc(OC)cc1N1CCC(COc2cc(C(CC(=O)O)C3CC3)ccn2)CC1)c1ccccn1 (stereo not shown) [Example 149, 3-cyclopropyl-3-(2-((1-(2-((2,2-dimethylbutyl)(pyridin-2-yl)carbamoyl)-5-methoxyphenyl)piperidin-4-yl)methoxy)pyridin-4-yl)propanoic acid] | 101
COc1ccc(C(=O)N(C)CC(F)(F)C(F)(F)F)c(N2CCC(COc3cc(C(CC(=O)O)C4CC4)ccn3)CC2)c1 (stereo not shown) [Example 130, 3-cyclopropyl-3-(2-((1-(5-methoxy-2-(methyl(2,2,3,3,3-pentafluoropropyl)carbamoyl)phenyl)piperidin-4-yl)methoxy)pyridin-4-yl)propanoic acid] | 100
CSc1ccc(C(=O)N(CC(C)(C)C)c2cccc(C)n2)c(N2CCC(COc3cc(C(CC(=O)O)C4CC4)ccn3)CC2)c1 (stereo not shown) [Example 262, 3-cyclopropyl-3-(2-((1-(2-((2,2-dimethylpropyl)(6-methylpyridin-2-yl)carbamoyl)-5-(methylsulfanyl)phenyl)piperidin-4-yl)methoxy)pyridin-4-yl)propanoic acid] | 90
COc1ccc(C(=O)N(CC(C)(C)C)c2ccccn2)c(N2CCC(COc3cccc(C(CC(=O)O)C4CC4)c3)C(F)(F)C2)c1 [Example 281, (3S)-cyclopropyl-3-(3-((1-(2-((2,2-dimethylpropyl)-(pyridin-2-yl)carbamoyl)-5-methoxyphenyl)-3,3-difluoropiperidin-4-yl)methoxy)phenyl)-propanoic acid] | 92

More lines, now with the values ahead:

activation at 1 µM [%] | Structure (SMILES)
96 | COCC(CC(=O)O)c1cccc(OCC2CCN(c3cc(OC)ccc3C(=O)N(CC(C)(C)C)c3cccc(C)n3)CC2)c1 (stereo not shown) [Example 276, 3-(3-((1-(2-((2,2-dimethylpropyl) (6-methylpyridin-2-yl)carbamoyl)-5-methoxyphenyl)piperidin-4-yl)methoxy)phenyl)-4-methoxybutanoic acid]
101 | COc1ccc(C(=O)N(CC(F)(F)F)c2ccccn2)c(N2CCC(COc3cc(C(CC(=O)O)C4CC4)ccn3)CC2)c1 (stereo not shown) [Example 116, 3-cyclopropyl-3-(2-((1-(5-methoxy-2-(pyridin-2-yl(2,2,2-trifluoroethyl)carbamoyl)phenyl)piperidin-4-yl)methoxy)pyridin-4-yl)propanoic acid]
85 | COc1ccc(C(=O)N(CC(C)(C)OC)c2ccccn2)c(N2CCC(COc3cc(C(CC(=O)O)C4CC4)ccn3)CC2)c1 (stereo not shown) [Example 131, 3-cyclopropyl-3-(2-((1-(5-methoxy-2-((2-methoxy-2-methylpropyl)(pyridin-2-yl)carbamoyl)phenyl)piperidin-4-yl)methoxy)pyridin-4-yl)propanoic acid]
98 | COc1ccc(C(=O)N(CC(F)(F)F)c2cc(C)ccn2)c(N2CCC(COc3cc(C(CC(=O)O)OC)ccn3)CC2)c1 (stereo not shown) [Example 271, 3-methoxy-3-(2-((1-(5-methoxy-2-((4-methylpyridin-2-yl)(2,2,2-trifluoroethyl)carbamoyl)phenyl)piperidin-4-yl)methoxy)pyridin-4-yl)propanoic acid]
101 | COc1ccc(C(=O)N(CC(C)(C)C)c2cc(C)cc(C)n2)c(N2CCC(COc3cc(C(CC(=O)O)C4CC4)ccn3)CC2)c1 (stereo not shown) [Example 243, 3-cyclopropyl-3-(2-((1-(2-((2,2-dimethylpropyl)(4,6-dimethylpyridin-2-yl)carbamoyl)-5-methoxyphenyl)piperidin-4-yl)methoxy)pyridin-4-yl)propanoic acid]
97 | COc1ccc(C(=O)N(CC(C)(C)OCC(F)(F)F)c2ccccn2)c(N2CCC(COc3cc(C(CC(=O)O)C4CC4)ccn3)CC2)c1 (stereo not shown) [Example 161, 3-cyclopropyl-3-(2-((1-(5-methoxy-2-((2-methyl-2-(2,2,2-trifluoroethoxy)propyl)(pyridin-2-yl)carbamoyl)phenyl)piperidin-4-yl)methoxy)pyridin-4-yl)propanoic acid]
92 | COc1ccc(C(=O)N(CC(C)(C)C)c2cncc(C)c2)c(N2CCC(COc3cc(C(CC(=O)O)C4CC4)ccn3)CC2)c1 (stereo not shown) [Example 231, 3-cyclopropyl-3-(2-((1-(2-((2,2-dimethylpropyl) (5-methylpyridin-3-yl)carbamoyl)-5-methoxyphenyl)piperidin-4-yl)methoxy)pyridin-4-yl)propanoic acid]
101 | COc1ccc(C(=O)N(CC(C)C)c2cccc(C)n2)c(N2CCC(COc3cc(C(CC(=O)O)C4CC4)ccn3)CC2)c1 (stereo not shown) [Example 122, 3-cyclopropyl-3-(2-((1-(5-methoxy-2-((2-methylpropyl)(6-methylpyridin-2-yl)carbamoyl)phenyl)piperidin-4-yl)methoxy)pyridin-4-yl)propanoic acid]
104 | COc1ccc(C(=O)N(CC(F)(F)C(F)(F)F)c2ncccn2)c(N2CCC(COc3cc(C(CC(=O)O)C4CC4)ccn3)CC2)c1 (stereo not shown) [Example 170, 3-cyclopropyl-3-(2-((1-(5-methoxy-2-((2,2,3,3,3-pentafluoropropyl)(pyrimidin-2-yl)carbamoyl)phenyl)piperidin-4-yl)methoxy)pyridin-4-yl)propanoic acid]
96 | COc1cc(N2CCC(COc3cc(C(CC(=O)O)C4CC4)ccn3)CC2)c(C(=O)N(CC(F)(F)F)c2ccccn2)cn1 (stereo not shown) [Example 256, 3-cyclopropyl-3-(2-((1-(2-methoxy-5-(pyridin-2-yl(2,2,2-trifluoroethyl)carbamoyl)pyridin-4-yl)piperidin-4-yl)methoxy)pyridin-4-yl)propanoic acid]
